Results taken from patent US10315994B2, “Photostable compounds, absorbing compounds and uses thereof” (Commonwealth Scientific and Industrial Research Organisation, priority 2015, dated 2019).
Entries after “also recorded” stand apart in the source; their conditions may differ. Each block holds one compound with its values, some of them ahead of it.

Tests used:
[1] = Photostability of thin films exposed to xenon arc lamp; assay type: physicochemical; details: for % λmax (% of original absorbance remaining): absorbance at λmax, irradiated vs unirradiated; for % λmax (% of original absorbance remaining) / % abs total (% of original absorbance remaining): xenon arc lamp 1 hour, thin film; for Photostability, % remaining after irradiation: exposure to the lamp for 1 h; for % abs total (% of original absorbance remaining): sum of absorbance 290-400 nm
Protocol: 1 mL of a 3% solution of the test compound (30 mg of test compound in 1 mL solvent) was prepared in a solvent mix made up of 50% EtOH and 25% capric/caprylic triglyceride and 25% C12-C15 alkyl benzoate. 50 μL of this solution (containing 1.5 mg of test compound) was added carefully to the centre of a glass microscope slide and the volatile components left to evaporate in the dark for at least 3 hours to give a liquid film. […] The irradiation was performed in a fume cupboard where the air flow was sufficient to keep sample T<30° C. One hour's exposure represented a calculated radiation dose (using meter) of approximately 100 MED.
In order to calculate the photostability of the test compounds, the exposed slides were placed in a beaker and rinsed with 2×5 mL EtOH, 1×5 mL MeOH. The combined washings were then added to a 100 mL volumetric flask and made up to 100 mL total volume with methanol. The UV absorbance was then measured in a 10 mm cuvette. The percent stability is measured as the ratio of absorbance at λmax for the irradiated sample compared to the unirradiated sample. As a further measure, a comparison of the sum of the absorbance in the 290-400 nm range was calculated.
The thin films are a good surrogate for testing the stability of a candidate in a sunscreen formulation as they use cosmetic emollients as solvent and are formed at cosmetically relevant concentrations.

[2] = UV/visible absorbance characteristics (λmax, λcrit, ε, E 1%,1 cm); assay type: physicochemical
[3] = Table 5, in M-1 cm-1 (unit assumed)
[4] = Table 1, in M-1 cm-1 (unit assumed)
[5] = Table 2, in M-1 cm-1 (unit assumed)

- % λmax (% of original absorbance remaining) [1]: 11%
- Photostability, % remaining after irradiation [1]: less than 20%
- % abs total (% of original absorbance remaining) [1]: 21%
Compound: CC1(C)CCN(C(C)(C)C)C=C1C(=O)CC(=O)c1ccccc1 [Compound 94]
- Colour change on exposure to irradiation ([1]; film): goes from bright yellow to colourless; also recorded: became perfectly colourless

- E (1%, 1 cm) ([2]; Table 5): 1315
- λcrit ([2]; Table 5): 358 nm
- λmax ([2]; Table 5): 339 nm
- ε [2, 3]: 66020
Compound: Cc1ccc(N2C=C(C(=O)C(F)(F)F)C(C)(C)CC2)cc1N1C=C(C(=O)C(F)(F)F)C(C)(C)CC1

- % λmax (% of original absorbance remaining) [1]: 30%
- % abs total (% of original absorbance remaining) [1]: 31%
Compound: CCC(=O)C1=CN(c2ccccc2)CCC1(C)C [Compound 23]

- E (1%, 1 cm) ([2]; Table 1): 1051
- λcrit ([2]; Table 1): 363 nm
- λmax ([2]; Table 1): 341 nm
- ε [2, 4]: 60770
Compound: CC1(C)CCN(c2ccc(Cc3ccc(N4C=C(C(=O)C(F)(F)F)C(C)(C)CC4)cc3)cc2)C=C1C(=O)C(F)(F)F [Compound 108]

- UV λmax ([2]; synthesis section): 359 nm
- ε ([2]; synthesis section): 70222 M⁻¹ cm⁻¹
Compound: CCCCCCC(=O)C1=CN(c2ccc(N3C=C(C(=O)CCCCCC)C(C)(C)CC3)cc2)CCC1(C)C [1,1′-(1,4-phenylenebis(4,4-dimethyl-1,4,5,6-tetrahydropyridine-1,3-diyl))bis(heptan-1-one)]

- E (1%, 1 cm) ([2]; Table 5): 1170
- λcrit ([2]; Table 5): 369 nm
- λmax ([2]; Table 5): 347 nm
- ε [2, 3]: 58853
Compound: Cc1cc(N2C=C(C(=O)C(F)(F)F)C(C)(C)CC2)ccc1N1C=C(C(=O)C(F)(F)F)C(C)(C)CC1

- UV λmax ([2]; synthesis section): 386 nm
- ε ([2]; synthesis section): 36404 M⁻¹ cm⁻¹
Compound: CC1(C)CCN(C(C)(C)C)C=C1C(=O)/C=C/c1ccc(/C=C/C(=O)C2=CN(C(C)(C)C)CCC2(C)C)cc1 [(2E,2′E)-3,3′-(1,4-phenylene)bis(1-(1-(tert-butyl)-4,4-dimethyl-1,4,5,6-tetrahydropyridin-3-yl)prop-2-en-1-one)]

- E (1%, 1 cm) ([2]; Table 1): 263
- λcrit ([2]; Table 1): 391 nm
- λmax ([2]; Table 1): 384 nm
- ε [2, 4]: 7393
Compound: CC1(C)C=CN(c2ccccc2)C=C1C(=O)C(F)(F)F [Compound 105]

- E (1%, 1 cm) ([2]; Table 1): 923
- λcrit ([2]; Table 1): 365 nm
- λmax ([2]; Table 1): 343 nm
- ε [2, 4]: 53548
Compound: CC1(C)CCN(c2ccc(Oc3ccc(N4C=C(C(=O)C(F)(F)F)C(C)(C)CC4)cc3)cc2)C=C1C(=O)C(F)(F)F [Compound 111]

- λmax ([2]; Table 7, benzoyl derivatives): 315 nm
Compound: CC1(C)CCN(C(C)(C)C)C=C1C(=O)c1c(F)c(F)c(F)c(F)c1F [Compound 185]

- % λmax (% of original absorbance remaining) [1]: 55%
Compound: Cc1ccc(NC(=O)C2=CN(C(C)(C)CC(C)(C)C)CCC2(C)C)cc1NC(=O)C1=CN(C(C)(C)CC(C)(C)C)CCC1(C)C [Compound 161]

- E (1%, 1 cm) ([2]; Table 1): 1120
- λcrit ([2]; Table 1): 386 nm
- λmax ([2]; Table 1): 367 nm
- ε [2, 4]: 54658
- E (1%, 1 cm) ([2]; Table 2): 1120
- λcrit ([2]; Table 2): 387 nm
- λmax ([2]; Table 2): 367 nm
- ε [2, 5]: 54658
Compound: CC1(C)CCN(c2ccc(N3C=C(C(=O)C(F)(F)F)C(C)(C)CC3)cc2)C=C1C(=O)C(F)(F)F [Compound 116]

- Photostability (%) ([1]; Table 7, benzoyl derivatives): 90%
Compound: CC1(C)CCN(C(C)(C)C)C=C1C(=O)c1c(F)cccc1F [Compound 184]

- % λmax (% of original absorbance remaining) [1]: 89%
- % abs total (% of original absorbance remaining) [1]: 88%
Compound: CC(C)CN1C=C(C(=O)C(F)(F)F)C(C)(C)CC1 [Compound 146]

- E (1%, 1 cm) ([2]; Table 5): 1495
- λcrit ([2]; Table 5): 346 nm
- λmax ([2]; Table 5): 326 nm
- ε [2, 3]: 75074
Compound: Cc1c(N2C=C(C(=O)C(F)(F)F)C(C)(C)CC2)cccc1N1C=C(C(=O)C(F)(F)F)C(C)(C)CC1

- Photostability (%) ([1]; Table 5): <5%
Compound: CC(C)(C)CC(C)(C)N1C=C(C(=O)/C=C/c2ccc(/C=C/C(=O)C3=CN(C(C)(C)CC(C)(C)C)CCC3(C)C)cc2)C(C)(C)CC1

- ε [2, 4]: 56063
Compound: CCC(=O)C1=CN(c2ccc(Oc3ccc(N4C=C(C(=O)CC)C(C)(C)CC4)cc3)cc2)CCC1(C)C [Compound 118]

- Photostability (%) ([1]; Table 7, benzoyl derivatives): 85%
Compound: CC1(C)CCN(C(C)(C)C)C=C1C(=O)c1ccc(Br)cc1 [Compound 76]

- UV λmax ([2]; synthesis section): 316 nm
- ε ([2]; synthesis section): 41598 M⁻¹ cm⁻¹
Compound: CCCCC(CC)CN(c1ccc(C(=O)C2=CN(C(C)(C)C)CCC2(C)C)cc1)c1ccc(C(=O)C2=CN(C(C)(C)C)CCC2(C)C)cc1 (stereo not drawn) [drawing 95, (((2-ethylhexyl)azanediyl)bis(4,1-phenylene))bis((1-(tert-butyl)-4,4-dimethyl-1,4,5,6-tetrahydropyridin-3-yl)methanone)]

- E (1%, 1 cm) ([2]; Table 1): 657
- λcrit ([2]; Table 1): 382 nm
- λmax ([2]; Table 1): 349 nm
- ε [2, 4]: 25890
Compound: CC1(C)CCN(c2ccc(N3C=C(C(=O)C(F)(F)F)C(C)(C)CC3)cc2)CC1 [Compound 117]

The remaining lines, values behind:

Compound: CCCCNc1ccc(C(=O)C2=CN(C(C)(C)C)CCC2(C)C)cc1 [Compound 102]
- E (1%, 1 cm) ([2]; Table 1): 628

Compound: CC1(C)CCN(c2ccc(N3C=C(C(=O)C(F)(F)C(F)(F)C(F)(F)F)C(C)(C)CC3)cc2)C=C1C(=O)C(F)(F)C(F)(F)C(F)(F)F [Compound 158]
- E (1%, 1 cm) ([2]; Table 1): 750
- λcrit ([2]; Table 1): 388 nm
- λmax ([2]; Table 1): 369 nm
- ε [2, 4]: 51600
- E (1%, 1 cm) ([2]; Table 2): 750
- λcrit ([2]; Table 2): 388 nm
- λmax ([2]; Table 2): 369 nm
- ε [2, 5]: 51600

Compound: CC(C)CN1C=C(C(=O)C(c2ccccc2)c2ccccc2)C(C)(C)CC1 [Compound 16]
- % λmax (% of original absorbance remaining) [1]: 35%
- % abs total (% of original absorbance remaining) [1]: 37%

Compound: CCC(=O)C1=CN(CC(C)C)CCC1(C)C [Compound 1]
- % λmax (% of original absorbance remaining) [1]: 21%
- Photostability, % remaining after irradiation [1]: 21%
- % abs total (% of original absorbance remaining) [1]: 24%

Compound: CC(C)CN1C=C(C(=O)c2ccccc2)C(C)(C)CC1 [Compound 11]
- Photostability (%) ([1]; Table 7, benzoyl derivatives): 59%
- % λmax (% of original absorbance remaining) [1]: 59%
- Photostability, % remaining after irradiation [1]: 59%
- % abs total (% of original absorbance remaining) [1]: 63%

Compound: Br.CCC(=O)C1=CN(CC(C)C)CCC1(C)C [Compound 44]
- % λmax (% of original absorbance remaining) [1]: 56%
- Photostability, % remaining after irradiation [1]: 56%
- % abs total (% of original absorbance remaining) [1]: 56%

Compound: CC(C)CN1C=C(C(=O)C(C)(C)C)C(C)(C)CC1 [Compound 145]
- % λmax (% of original absorbance remaining) [1]: 60%
- % abs total (% of original absorbance remaining) [1]: 60%

Compound: CC1(C)CCN(C(C)(C)C)C=C1C(=O)c1ccccc1 [Compound 179]
- Photostability, % remaining after irradiation [1]: 76%

Compound: CCCCCCCC(=O)C1=CN(C(C)(C)C)CCC1(C)C [319, 2]
- % λmax (% of original absorbance remaining) [1]: 45%
- Photostability, % remaining after irradiation [1]: over 40%
- % abs total (% of original absorbance remaining) [1]: 47%

Compound: CN(C(=O)C1=CN(C(C)(C)C)CCC1(C)C)c1ccccc1 [Compound 70]
- % λmax (% of original absorbance remaining) [1]: 9%
- % abs total (% of original absorbance remaining) [1]: 14%

Compound: CC(C)(C)Oc1ccc(C(=O)C2=CN(C(C)(C)C)CCC2(C)C)cc1 [Compound 88]
- Photostability (%) ([1]; Table 7, benzoyl derivatives): 38%

Compound: CC1(C)CCN(C(C)(C)C)C=C1C(=O)c1ccncc1 [Compound 58]
- Photostability (%) ([1]; Table 7, benzoyl derivatives): 78%

Compound: CN(C)c1ccc(C(=O)C2=CN(C(C)(C)C)CCC2(C)C)cc1 [Compound 86]
- Photostability (%) ([1]; Table 7, benzoyl derivatives): 30%
- Photostability, % remaining after irradiation [1]: 30%

Compound: CC1(C)CCN(C(C)(C)C)C=C1C(=O)C(F)(F)C(F)(F)C(F)(F)C(=O)C1=CN(C(C)(C)C)CCC1(C)C [drawing 123]
- E (1%, 1 cm) ([2]; Table 5): 1177
- λcrit ([2]; Table 5): 337 nm
- λmax ([2]; Table 5): 317 nm
- ε [2, 3]: 63346
